One test deals with Cathepsin D (Homo sapiens, UniProt P07339).
Another test has as its target Beta-secretase 1 (Homo sapiens, UniProt P56817). Description: biochemical.

pKi: −log10 of the molar value. A value given as a limit tells only on which side of the number the result lay.

Chain of Beta-secretase 1 (P56817 whole entry): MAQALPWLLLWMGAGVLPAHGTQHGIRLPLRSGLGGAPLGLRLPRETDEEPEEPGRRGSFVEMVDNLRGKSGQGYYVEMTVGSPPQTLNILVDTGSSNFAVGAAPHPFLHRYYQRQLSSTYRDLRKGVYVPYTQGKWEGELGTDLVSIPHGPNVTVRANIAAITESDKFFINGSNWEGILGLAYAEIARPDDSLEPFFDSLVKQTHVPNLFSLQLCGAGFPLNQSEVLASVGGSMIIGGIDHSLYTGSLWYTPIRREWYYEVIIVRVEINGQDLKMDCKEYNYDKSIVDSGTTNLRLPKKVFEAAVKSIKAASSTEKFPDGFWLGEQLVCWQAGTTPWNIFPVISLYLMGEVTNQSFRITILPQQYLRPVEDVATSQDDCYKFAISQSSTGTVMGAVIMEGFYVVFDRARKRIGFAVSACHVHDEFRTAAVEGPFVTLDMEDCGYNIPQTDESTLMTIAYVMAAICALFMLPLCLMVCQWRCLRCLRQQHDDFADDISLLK
Chain of Cathepsin D (P07339 65-162 limits assumed): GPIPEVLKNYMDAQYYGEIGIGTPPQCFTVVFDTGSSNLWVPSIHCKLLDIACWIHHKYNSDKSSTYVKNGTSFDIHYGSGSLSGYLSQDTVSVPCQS
Chain of Cathepsin D (P07339 169-412 limits assumed): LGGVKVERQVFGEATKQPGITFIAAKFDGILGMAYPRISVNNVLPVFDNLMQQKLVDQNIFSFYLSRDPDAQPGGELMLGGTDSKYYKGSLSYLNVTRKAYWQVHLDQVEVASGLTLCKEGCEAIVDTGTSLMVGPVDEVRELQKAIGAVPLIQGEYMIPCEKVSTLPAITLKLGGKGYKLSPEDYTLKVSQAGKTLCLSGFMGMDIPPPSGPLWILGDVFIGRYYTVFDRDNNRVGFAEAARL
Description for Beta-secretase 1: Inhibition of human BACE1 expressed in Escherichia coli cells (BL21(DE3) by TRF assay
Description for Cathepsin D: Inhibition of human liver cathepsin D

What is called pKi is −log10 of the Ki, conventionally taken in molar units. A lower pKi goes with a large Ki. On to `CO[C@H](C[C@H](O)[C@H](COc1cc(F)cc(F)c1)NC(=O)c1cc(C(=O)N[C@H](C)c2ccccc2)cc(N(C)CS(C)(=O)=O)c1)C(=O)Nc1ccccc1`, for which the pKi is less than 5.30 on Cathepsin D and 6.70 at Beta-secretase 1.

For `CO[C@H](C[C@H](O)[C@H](COc1cc(F)cc(F)c1)NC(=O)c1cc(C(=O)N[C@H](C)c2ccccc2)cc(N(C)CS(C)(=O)=O)c1)C(=O)Nc1ccc(F)cc1`, the results for the pKi on Cathepsin D and at Beta-secretase 1 were less than 5.30 and 7.00, respectively.

As to `CCCN(CCC)C(=O)c1cccc(C(=O)N[C@@H](COCc2cc(F)cc(F)c2)[C@@H](O)C[C@@H](OC)C(=O)NC2CC2)c1`, the pKi at Beta-secretase 1 is less than 5.00.

`CO[C@H](C[C@H](O)[C@H](COCc1ccc(Br)cc1)NC(=O)c1cc(C(=O)N[C@H](C)c2ccccc2)cc(N(C)CS(C)(=O)=O)c1)C(=O)N[C@H](C(=O)NCc1ccccc1)C(C)C`: the pKi at Beta-secretase 1 is 7.22.

`CO[C@H](C[C@H](O)[C@H](COc1cc(F)cc(F)c1)NC(=O)c1cc(C(=O)N[C@H](C)c2ccccc2)cc(N(C)CS(C)(=O)=O)c1)C(=O)N[C@H](C(=O)NCc1ccccc1)C(C)C`: the pKi on Cathepsin D is 5.96; at Beta-secretase 1 it was greater than 9.00.

For the compound `CO[C@H](C[C@H](O)[C@H](COc1cc(F)cc(F)c1)NC(=O)c1cc(C(=O)N[C@H](C)c2ccccc2)cc(N(C)CS(C)(=O)=O)c1)C(=O)NCc1ccccc1`, the results for the pKi on Cathepsin D and at Beta-secretase 1 were less than 5.30 and 5.85, respectively.

The compound `CO[C@H](C[C@H](O)[C@H](COCc1cc(F)cc(F)c1)NC(=O)c1cc(C(=O)N[C@H](C)c2ccccc2)cc(N(C)CS(C)(=O)=O)c1)C(=O)N[C@H](C(=O)NCc1ccccc1)C(C)C` gave a pKi on Beta-secretase 1 of 7.10.

With `CO[C@H](C[C@H](O)[C@H](COc1ccc(Br)cc1)NC(=O)c1cc(C(=O)N[C@H](C)c2ccccc2)cc(N(C)CS(C)(=O)=O)c1)C(=O)N[C@H](C(=O)NCc1ccccc1)C(C)C`, the pKi at Cathepsin D is 6.08; on Beta-secretase 1, 7.12.

As to `CO[C@H](C[C@H](O)[C@H](COc1ccccc1)NC(=O)c1cc(C(=O)N[C@H](C)c2ccccc2)cc(N(C)CS(C)(=O)=O)c1)C(=O)N[C@H](C(=O)NCc1ccccc1)C(C)C`, the pKi was 6.34 at Cathepsin D and 8.05 on Beta-secretase 1.

Regarding `CO[C@H](C[C@H](O)[C@H](COc1cc(F)cc(F)c1)NC(=O)c1cc(C(=O)N[C@H](C)c2ccccc2)cc(N(C)CS(C)(=O)=O)c1)C(=O)NC1CC1`, the pKi on Cathepsin D was less than 5.30; on Beta-secretase 1 it was 5.74.

With `CO[C@H](C[C@H](O)[C@H](COc1cc(F)cc(F)c1)NC(=O)c1cc(C(=O)N[C@H](C)c2ccccc2)cc(N(C)CS(C)(=O)=O)c1)C(=O)NCC(C)C`, the results for the pKi at Cathepsin D and at Beta-secretase 1 were less than 5.30 and 6.40, respectively.

As for `CCCN(CCC)C(=O)c1cccc(C(=O)N[C@@H](COc2cc(F)cc(F)c2)[C@@H](O)C[C@@H](OC)C(=O)NC2CC2)c1`, on Beta-secretase 1, the negative-log Ki (pKi) is 6.66.

These data come from ChEMBL document CHEMBL1157542, “Design and synthesis of potent and selective BACE-1 inhibitors” (J Med Chem, 2010).
